# Assay results published in article PMC10726358 (Journal of Medicinal Chemistry, 2023).
# How the values were obtained:
# BRD4 BD1 [1] = conditions: literature compound, no reference given; cited from earlier work
# BET BD1 = conditions: cited from earlier work
# BET BD2 = conditions: cited from earlier work
# CAD aqueous solubility = assay: CAD aqueous solubility
# Description: (§1) To understand cellular target engagement, 21 was tested in an LPS-stimulated hWB assay measuring inhibition of the inflammatory mediator MCP-1 secretion.
# ChromatographicLogD at pH 7.4, artificial membrane permeability, CLND solubility, and CAD solubility were measured using published protocols.[55]
# [2] = Chromatographic LogD at pH 7.4; conditions: pH 7.4
# BRD4 BD1 [3] = type: binding, human; conditions: TR-FRET
# Description: (§2) As a strategic decision, every compound synthesized across all of GSK’s bromodomain research projects was tested in both a BRD4 BD1 and a BRD4 BD2 TR-FRET assay as part of tier 1 data generation. […] LipE is a straightforward, yet powerful metric for medicinal chemistry teams to normalize potency relative to lipophilicity, a critical factor both for parameters of the human dose equation and also for promiscuity.[43],[44] To aid interpretation, diagonal lines representing different LipE values are shown, with the most desirable space found toward the top left-hand area of the plot representing molecules with the comparatively highest potency per unit of lipophilicity.
# (§3) All TR-FRET and hWB cytokine assays have been described previously.[54]
# MCP-1 = assay: LPS-stimulated human whole blood (hWB) MCP-1 release assay; type: cell-based; conditions: LPS-stimulated human whole blood; read-out: hWB MCP-1 pIC50 (converted)
# Description: The utility of a chemical probe in target validation is directly related to its quality, with important publications detailing requirements to aid researchers.[36]−[38] […] It was accepted that selectivity would be judged initially through a mutant BRD4 TR-FRET assay and would likely shift depending on the protein construct and assay format. […] Previous studies have shown that BET BD1 inhibition is sufficient to inhibit in vitro production of MCP-1 in LPS-stimulated hWB and, as such, served as a relevant measure of cellular target engagement and, concomitantly, proof of cellular permeability.[12],[39] Selectivity over other human bromodomains outside of the BET family, known collectively as non-BET bromodomains, was also required,[40] with a ≥ 100-fold selectivity window targeted. To ensure the molecules remained within developable chemical space, a target property forecast index (PFI) as defined by chromLogDpH7.4 + number of aromatic rings ≤6 was set.[41]
# as §1, §3
# BRD4 BD2 = BRD4 BD2 TR-FRET assay; type: binding, human
# Description: as §2, §3
# [4] = CLND kinetic aqueous solubility; conditions: aqueous (buffer not specified)
compound,measurement,setting,value
COc1ccccc1S(=O)(=O)Nc1ccc2c3c(cc(-n4cnc(C)c4)nc13)C(=O)N2C [LT052],IC50,BRD4 BD1 [1],88 nM
same,selectivity for BRD4 BD1 over BRD4 BD2,BRD4 BD1 [1],138 fold
COCc1nc2cnc3cc(-c4c(C)noc4C)c(OC[C@H]4CCNC4)cc3c2n1[C@H](C)c1ccccc1 [GSK778],IC50,BET BD1,< 100 nM
same,selectivity for BET BD1 over BET BD2,BET BD1,30–140 fold
COc1cc(OC)c2c(=O)[nH]c(-c3cc(C)c(OCCO)c(C)c3)nc2c1 [Apabetalone/RVX-208],BD2 selectivity over BET BD1,BET BD2,10 fold
"Cc1cc(-c2nc3ccccc3n2C[C@@H]2CCCN(C(=O)C3CCN(CCF)CC3)C2)cn(C)c1=O [Compound 34, (S)-5-(1-((1-(1-(2-Fluoroethyl)piperidine-4-carbonyl)piperidin-3-yl)methyl)-1H-benzo[d]imidazole-2-yl)-1,3-dimethylpyridin-2(1H)-one]",pKa,pKa of the basic amine,7.3
same,solubility,CAD aqueous solubility,≥ 207 µg/mL
same,chromatographic logD,[2],2.5
same,BRD4 BD1 FRET pIC50,BRD4 BD1 [3],7.6
same,fold selectivity (BRD4 BD1 over BRD4 BD2),BRD4 BD1 [3],794 fold
same,IC50,MCP-1,63.1 nM
same,BRD4 BD2 FRET pIC50,BRD4 BD2,4.7
"Cc1cc(-c2nc3ccccc3n2C[C@@H]2CCCN(C(=O)C3CCN(CC(F)F)CC3)C2)cn(C)c1=O [Compound 35, (S)-5-(1-((1-(1-(2,2-Difluoroethyl)piperidine-4-carbonyl)piperidin-3-yl)methyl)-1H-benzo[d]imidazole-2-yl)-1,3-dimethylpyridin-2(1H)-one]",pKa,pKa of the basic amine,4.2
same,solubility,CAD aqueous solubility,≥ 279 µg/mL
same,chromatographic logD,[2],3.2
same,BRD4 BD1 FRET pIC50,BRD4 BD1 [3],6.7
same,fold selectivity (BRD4 BD1 over BRD4 BD2),BRD4 BD1 [3],100 fold
same,IC50,MCP-1,631 nM
same,BRD4 BD2 FRET pIC50,BRD4 BD2,4.7
CCNC(=O)c1cc2c(-c3cc(C(C)(C)O)ccc3Oc3c(C)cc(F)cc3C)cn(C)c(=O)c2[nH]1 [ABBV-744],BD2 selectivity over BET BD1,BET BD2,330 fold
"Cc1cc(-c2nc3ccccc3n2C[C@@H]2CCCNC2)cn(C)c1=O [Compound 19, (R)-1,3-Dimethyl-5-(1-(piperidin-3-ylmethyl)-1H-benzo[d]imidazole-2-yl)pyridin-2(1H)-one]",chromatographic logD,[2],0.7
same,solubility,[4],≥ 152 µg/mL
same,BRD4 BD1 FRET pIC50,BRD4 BD1 [3],6.2
same,fold selectivity (BRD4 BD1 over BRD4 BD2),BRD4 BD1 [3],16 fold
same,BRD4 BD2 FRET pIC50,BRD4 BD2,5.0
